Results taken from patent publication US20240376075A1, “POLYMORPHIC FORMS OF AURORA A SELECTIVE INHIBITORS AND USES THEREOF” (Jacobio Pharmaceuticals Co., Ltd., priority 2021, published 2024).

What was measured:
[1] = PK in rat, oral suspension; format: in vivo; conditions: Sprague-Dawley, plasma, SD rats, PO: 5 mg/kg, suspension in 0.5% CMC-Na
Experimental: The plasma samples were collected at 0 hour (pre-dose), 0.083, 0.25, 0.5, 1, 2, 4, 6, 8, 24 hours post-dose. Plasma drug concentration was detected by LC-MS/MS. Pharmacokinetic parameters were calculated using WinNonlin's software with non-compartmental model.

[2] = PK in dog, oral suspension; format: in vivo, Beagle dogs; conditions: for AUC(0-t) / Cmax / half-life: dog, plasma, Beagle dogs, suspension in 0.5% CMC-Na
Experimental: Then plasma samples were collected at 0 hour (pre-dose), 0.083, 0.25, 0.5, 1, 2, 4, 6, 8, 24 hours post-dose. Plasma drug concentration was detected by LC-MS/MS. Pharmacokinetic parameters were calculated using WinNonlin's software with non-compartmental model.

[3] = Crystal form stability experiment (XRPD); format: physicochemical; conditions: for Results (XRPD): uncapped or sealed, protected from light, 7 days and 14 days
Experimental: 1. […] The crystal forms stability test was carried out under the specified experimental conditions.

**Q.** For `Cc1cc(Nc2nc(C[C@@]3(C(=O)[O-])CCN(Cc4cccc(Cl)c4F)[C@H](C)C3)cc(C)c2F)n[nH]1.[K+]` [polymorph form I, potassium (2R,4R)-1-(3-chloro-2-fluorobenzyl)-4-((5-fluoro-4-methyl-6-((3-methyl-1H-pyrazol-5-yl)amino)pyridin-2-yl)methyl)-2-methylpiperidine-4-carboxylate monohydrate], which AUC(0-t) [1] is on record?
**A.** Its AUC(0-t) is 93300 ng·h/mL.

**Q.** What about the Cmax [1] of the same compound?
**A.** Its Cmax is 12400 ng/mL.

**Q.** And the half-life [1]?
**A.** The half-life was 4.11 h.

**Q.** What about the AUC(0-t) ([2]; PO: 3 mg/kg) of the same compound?
**A.** Its AUC(0-t) is 45500 ng·h/mL.

**Q.** What about the Cmax ([2]; PO: 3 mg/kg) of the same compound?
**A.** The Cmax was 14400 ng/mL.

**Q.** What about the half-life ([2]; PO: 3 mg/kg) of the same compound?
**A.** The half-life was 8.12 h.

**Q.** What about the AUC(0-t) ([2]; PO: 10 mg/kg) of the same compound?
**A.** Its AUC(0-t) is 165000 ng·h/mL.

**Q.** What about the Cmax ([2]; PO: 10 mg/kg) of the same compound?
**A.** Its Cmax is 45000 ng/mL.

**Q.** And the half-life ([2]; PO: 10 mg/kg)?
**A.** Its half-life is 4.51 h.

**Q.** What about the “absorption and exposure in vivo” value ([2]; oral, summary of Examples 6 and 7 (rat and dog)) of the same compound?
**A.** The value was “great absorption and a high exposure”.

**Q.** What about the “Results (XRPD)” value ([3]; Accelerated (40° C. ± 2° C., 75% RH ± 10% RH)) of the same compound?
**A.** Its value is “Polymorph form I”.

**Q.** What about the “Results (XRPD)” value ([3]; Long-time (25° C. ± 2° C., 65% RH ± 10% RH)) of the same compound?
**A.** The value was “Polymorph form I”.

**Q.** And the “relative stability of the forms” value ([3]; at room temperature)?
**A.** Its value is “most stable”.

**Q.** What about the crystal form stability ([3]; long-term and accelerated conditions for 14 days) of the same compound?
**A.** Its crystal form stability is “remained unchanged”.

**Q.** Which solid form conversion ([3]; sealed for more than two weeks) does the source give for `Cc1cc(Nc2nc(C[C@@]3(C(=O)[O-])CCN(Cc4cccc(Cl)c4F)[C@H](C)C3)cc(C)c2F)n[nH]1.[K+]` [amorphous, potassium (2R,4R)-1-(3-chloro-2-fluorobenzyl)-4-((5-fluoro-4-methyl-6-((5-methyl-1H-pyrazol-3-yl)amino)pyridin-2-yl)methyl)-2-methylpiperidine-4-carboxylate] here?
**A.** Its solid form conversion is “transformed to Polymorph form I”.

**Q.** With `Cc1cc(Nc2nc(C[C@@]3(C(=O)[O-])CCN(Cc4cccc(Cl)c4F)[C@H](C)C3)cc(C)c2F)n[nH]1.[K+]` [Polymorph form II, potassium (2R,4R)-1-(3-chloro-2-fluorobenzyl)-4-((5-fluoro-4-methyl-6-((5-methyl-1H-pyrazol-3-yl)amino)pyridin-2-yl)methyl)-2-methylpiperidine-4-carboxylate] as the compound, how does the solid form conversion ([3]; after drying under 40° C. overnight) read?
**A.** The solid form conversion was “converted to polymorph form I”.

**Q.** For `Cc1cc(Nc2nc(C[C@@]3(C(=O)[O-])CCN(Cc4cccc(Cl)c4F)[C@H](C)C3)cc(C)c2F)n[nH]1.[K+]` [Polymorph form III, potassium (2R,4R)-1-(3-chloro-2-fluorobenzyl)-4-((5-fluoro-4-methyl-6-((5-methyl-1H-pyrazol-3-yl)amino)pyridin-2-yl)methyl)-2-methylpiperidine-4-carboxylate], which solid form conversion ([3]; when cooled back to room temperature) is on record?
**A.** Its solid form conversion is “converted to polymorph form I”.
